# Measurements from ChEMBL document CHEMBL1275599, “Comparison of in vitro activities of fluoroquinolone-like 2,4- and 1,3-diones” (Antimicrob Agents Chemother, 2010).
# Tested on: not listed separately
# Assay: Inhibition of DNA supercoiling activity of Escherichia coli DNA gyrase
row,Structure (SMILES),IC50 [nM]
1,CC[C@@H]1CCN(c2c(F)cc3c(=O)c(C(=O)O)cn(C4CC4)c3c2OC)C1,160
2,CC[C@@H]1CCN(c2c(F)cn3c(=O)n(N)c(=O)c(C4CC4)c3c2OC)C1,11000
3,CC[C@@H]1CCN(c2c(F)cc3c(=O)n(N)c(=O)n(C4CC4)c3c2OC)C1,2800
4,O=C(O)c1cn(C2CC2)c2cc(N3CCNCC3)c(F)cc2c1=O [CIPROFLOXACIN],450
5,CC[C@@H]1CCN(c2c(F)cc3c(=O)n(N)c(=O)n(C4CC4)c3c2C)C1,950

# Tested on: not listed separately
# Assay: Inhibition of DNA decatenation activity of Escherichia coli DNA topoisomerase 4
row,Structure (SMILES),IC50 [µM]
1,CC[C@@H]1CCN(c2c(F)cc3c(=O)c(C(=O)O)cn(C4CC4)c3c2OC)C1,1.7
2,CC[C@@H]1CCN(c2c(F)cn3c(=O)n(N)c(=O)c(C4CC4)c3c2OC)C1,163
3,CC[C@@H]1CCN(c2c(F)cc3c(=O)n(N)c(=O)n(C4CC4)c3c2OC)C1,16
4,O=C(O)c1cn(C2CC2)c2cc(N3CCNCC3)c(F)cc2c1=O [CIPROFLOXACIN],15.9
5,CC[C@@H]1CCN(c2c(F)cc3c(=O)n(N)c(=O)n(C4CC4)c3c2C)C1,6

# Biological target: DNA gyrase subunit A (Escherichia coli K-12, UniProt P0AES4, S83W)
# Assay: Inhibition of DNA supercoiling activity of Escherichia coli DNA gyrase gyrA S83W mutant
row,Structure (SMILES),IC50 [µM]
1,CC[C@@H]1CCN(c2c(F)cc3c(=O)c(C(=O)O)cn(C4CC4)c3c2OC)C1,1.4
2,CC[C@@H]1CCN(c2c(F)cn3c(=O)n(N)c(=O)c(C4CC4)c3c2OC)C1,67
3,CC[C@@H]1CCN(c2c(F)cc3c(=O)n(N)c(=O)n(C4CC4)c3c2OC)C1,5.9
4,CC[C@@H]1CCN(c2c(F)cc3c(=O)n(N)c(=O)n(C4CC4)c3c2C)C1,3.8

# Biological target: DNA gyrase subunit A (Escherichia coli K-12, UniProt P0AES4, A67S)
# Assay: Inhibition of DNA supercoiling activity of Escherichia coli DNA gyrase gyrA A67S mutant
row,Structure (SMILES),IC50 [nM]
1,CC[C@@H]1CCN(c2c(F)cc3c(=O)c(C(=O)O)cn(C4CC4)c3c2OC)C1,120
2,CC[C@@H]1CCN(c2c(F)cn3c(=O)n(N)c(=O)c(C4CC4)c3c2OC)C1,19000
3,CC[C@@H]1CCN(c2c(F)cc3c(=O)n(N)c(=O)n(C4CC4)c3c2OC)C1,2400
4,CC[C@@H]1CCN(c2c(F)cc3c(=O)n(N)c(=O)n(C4CC4)c3c2C)C1,1200

# Biological target: DNA gyrase subunit A (Escherichia coli K-12, UniProt P0AES4, G81C)
# Assay: Inhibition of DNA supercoiling activity of Escherichia coli DNA gyrase gyrA G81C mutant
row,Structure (SMILES),IC50 [µM]
1,CC[C@@H]1CCN(c2c(F)cc3c(=O)c(C(=O)O)cn(C4CC4)c3c2OC)C1,1.2
2,CC[C@@H]1CCN(c2c(F)cn3c(=O)n(N)c(=O)c(C4CC4)c3c2OC)C1,31
3,CC[C@@H]1CCN(c2c(F)cc3c(=O)n(N)c(=O)n(C4CC4)c3c2OC)C1,4.3
4,CC[C@@H]1CCN(c2c(F)cc3c(=O)n(N)c(=O)n(C4CC4)c3c2C)C1,1.7

# Tested on: Escherichia coli
# Assay: Selectivity ratio of IC50 for Escherichia coli DNA gyrase gyrA S83W mutant to IC50 for Escherichia coli wild-type DNA gyrase
row,Structure (SMILES),Ratio IC50
1,CC[C@@H]1CCN(c2c(F)cc3c(=O)c(C(=O)O)cn(C4CC4)c3c2OC)C1,8.8
2,CC[C@@H]1CCN(c2c(F)cn3c(=O)n(N)c(=O)c(C4CC4)c3c2OC)C1,6.1
3,CC[C@@H]1CCN(c2c(F)cc3c(=O)n(N)c(=O)n(C4CC4)c3c2OC)C1,2.1
4,CC[C@@H]1CCN(c2c(F)cc3c(=O)n(N)c(=O)n(C4CC4)c3c2C)C1,4

# Tested on: Escherichia coli
# Assay: Selectivity ratio of IC50 for Escherichia coli DNA gyrase gyrA G81C mutant to IC50 for Escherichia coli wild-type DNA gyrase
row,Structure (SMILES),Ratio IC50
1,CC[C@@H]1CCN(c2c(F)cc3c(=O)c(C(=O)O)cn(C4CC4)c3c2OC)C1,7.5
2,CC[C@@H]1CCN(c2c(F)cn3c(=O)n(N)c(=O)c(C4CC4)c3c2OC)C1,2.8
3,CC[C@@H]1CCN(c2c(F)cc3c(=O)n(N)c(=O)n(C4CC4)c3c2OC)C1,1.5
4,CC[C@@H]1CCN(c2c(F)cc3c(=O)n(N)c(=O)n(C4CC4)c3c2C)C1,1.8

# Tested on: Escherichia coli
# Assay: Selectivity ratio of IC50 for Escherichia coli DNA gyrase gyrA A67S mutant to IC50 for Escherichia coli wild-type DNA gyrase
row,Structure (SMILES),Ratio IC50
1,CC[C@@H]1CCN(c2c(F)cc3c(=O)c(C(=O)O)cn(C4CC4)c3c2OC)C1,0.75
2,CC[C@@H]1CCN(c2c(F)cn3c(=O)n(N)c(=O)c(C4CC4)c3c2OC)C1,1.7
3,CC[C@@H]1CCN(c2c(F)cc3c(=O)n(N)c(=O)n(C4CC4)c3c2OC)C1,0.86
4,CC[C@@H]1CCN(c2c(F)cc3c(=O)n(N)c(=O)n(C4CC4)c3c2C)C1,1.3

# Tested on: Escherichia coli
# Assay: Ratio of CC3 for Escherichia coli DNA gyrase gyrA S83W mutant to CC3 for Escherichia coli wild-type DNA gyrase
row,Structure (SMILES),Ratio
1,CC[C@@H]1CCN(c2c(F)cc3c(=O)c(C(=O)O)cn(C4CC4)c3c2OC)C1,6.5
2,CC[C@@H]1CCN(c2c(F)cn3c(=O)n(N)c(=O)c(C4CC4)c3c2OC)C1,3.4
3,CC[C@@H]1CCN(c2c(F)cc3c(=O)n(N)c(=O)n(C4CC4)c3c2OC)C1,2.1
4,CC[C@@H]1CCN(c2c(F)cc3c(=O)n(N)c(=O)n(C4CC4)c3c2C)C1,5.6

# Tested on: Escherichia coli
# Assay: Ratio of CC3 for Escherichia coli DNA gyrase gyrA A67S mutant to CC3 for Escherichia coli wild-type DNA gyrase
row,Structure (SMILES),Ratio
1,CC[C@@H]1CCN(c2c(F)cc3c(=O)c(C(=O)O)cn(C4CC4)c3c2OC)C1,1.5
2,CC[C@@H]1CCN(c2c(F)cn3c(=O)n(N)c(=O)c(C4CC4)c3c2OC)C1,1.5
3,CC[C@@H]1CCN(c2c(F)cc3c(=O)n(N)c(=O)n(C4CC4)c3c2OC)C1,1.7
4,CC[C@@H]1CCN(c2c(F)cc3c(=O)n(N)c(=O)n(C4CC4)c3c2C)C1,2.5

# Tested on: Escherichia coli
# Assay: Ratio of CC3 for Escherichia coli DNA gyrase gyrA G81C mutant to CC3 for Escherichia coli wild-type DNA gyrase
row,Structure (SMILES),Ratio
1,CC[C@@H]1CCN(c2c(F)cc3c(=O)c(C(=O)O)cn(C4CC4)c3c2OC)C1,13
2,CC[C@@H]1CCN(c2c(F)cn3c(=O)n(N)c(=O)c(C4CC4)c3c2OC)C1,2.3
3,CC[C@@H]1CCN(c2c(F)cc3c(=O)n(N)c(=O)n(C4CC4)c3c2OC)C1,2.3
4,CC[C@@H]1CCN(c2c(F)cc3c(=O)n(N)c(=O)n(C4CC4)c3c2C)C1,3.1

# Tested on: Escherichia coli
# Assay: Antimicrobial activity against Escherichia coli
# Format: functional
row,Structure (SMILES),MIC [µg/mL]
1,CC[C@@H]1CCN(c2c(F)cc3c(=O)c(C(=O)O)cn(C4CC4)c3c2OC)C1,0.004
2,CC[C@@H]1CCN(c2c(F)cc3c(=O)n(N)c(=O)n(C4CC4)c3c2OC)C1,2.5

# Biological target: DNA gyrase (Staphylococcus aureus, UniProt P0A0K8+P20831)
# Assay: Inhibition of DNA supercoiling activity of Staphylococcus aureus DNA gyrase
# Format: protein-complex assay
row,Structure (SMILES),IC50 [nM]
1,CC[C@@H]1CCN(c2c(F)cc3c(=O)c(C(=O)O)cn(C4CC4)c3c2OC)C1,1100
2,CC[C@@H]1CCN(c2c(F)cn3c(=O)n(N)c(=O)c(C4CC4)c3c2OC)C1,36500
3,CC[C@@H]1CCN(c2c(F)cc3c(=O)n(N)c(=O)n(C4CC4)c3c2OC)C1,2300
4,CC[C@@H]1CCN(c2c(F)cc3c(=O)n(N)c(=O)n(C4CC4)c3c2C)C1,1600

# Tested on: not listed separately
# Assay: Inhibition of DNA decatenation activity of Staphylococcus aureus DNA topoisomerase 4
row,Structure (SMILES),IC50 [µM]
1,CC[C@@H]1CCN(c2c(F)cc3c(=O)c(C(=O)O)cn(C4CC4)c3c2OC)C1,0.5
2,CC[C@@H]1CCN(c2c(F)cn3c(=O)n(N)c(=O)c(C4CC4)c3c2OC)C1,48
3,CC[C@@H]1CCN(c2c(F)cc3c(=O)n(N)c(=O)n(C4CC4)c3c2OC)C1,5.5
4,O=C(O)c1cn(C2CC2)c2cc(N3CCNCC3)c(F)cc2c1=O [CIPROFLOXACIN],8.8
5,CC[C@@H]1CCN(c2c(F)cc3c(=O)n(N)c(=O)n(C4CC4)c3c2C)C1,0.88

# Tested on: Escherichia coli
# Assay: Selectivity index, ratio of IC50 for Escherichia coli Topoisomerase 4 to IC50 for Escherichia coli DNA gyrase
row,Structure (SMILES),Ratio IC50
1,CC[C@@H]1CCN(c2c(F)cc3c(=O)c(C(=O)O)cn(C4CC4)c3c2OC)C1,10.6
2,CC[C@@H]1CCN(c2c(F)cn3c(=O)n(N)c(=O)c(C4CC4)c3c2OC)C1,14.8
3,CC[C@@H]1CCN(c2c(F)cc3c(=O)n(N)c(=O)n(C4CC4)c3c2OC)C1,5.7
4,CC[C@@H]1CCN(c2c(F)cc3c(=O)n(N)c(=O)n(C4CC4)c3c2C)C1,6.3

# Tested on: Staphylococcus aureus
# Assay: Selectivity index, ratio of IC50 for Staphylococcus aureus Topoisomerase 4 to IC50 for Staphylococcus aureus DNA gyrase
row,Structure (SMILES),Ratio IC50
1,CC[C@@H]1CCN(c2c(F)cc3c(=O)c(C(=O)O)cn(C4CC4)c3c2OC)C1,2.2
2,CC[C@@H]1CCN(c2c(F)cn3c(=O)n(N)c(=O)c(C4CC4)c3c2OC)C1,1.3
3,CC[C@@H]1CCN(c2c(F)cc3c(=O)n(N)c(=O)n(C4CC4)c3c2OC)C1,2.4
4,CC[C@@H]1CCN(c2c(F)cc3c(=O)n(N)c(=O)n(C4CC4)c3c2C)C1,1.8
